Columns and labels:
[1] = tested on: Calu3-shHER3 xenograft tumors; experiment: Calu3-shHER3 xenograft; format: in vivo, human; details: Calu3-shHER3, dox 2 gm/L in drinking water
Description: To confirm this role in vivo, studies using Calu3-shHER3 and Calu3-shHER4 xenograft models treated with either sucrose or dox were performed. Mice with established Calu3-shHER3 or Calu3-shHer4 xenograft tumors were administered vehicle (sucrose) or dox (2 gm/L) in their drinking water ad libitum (n=14/group).

[2] = tested on: Calu3-shNRG1 xenograft tumors; experiment: Calu3-shNRG1 xenograft, NRG1 knockdown +/- chemotherapy; format: in vivo, human; details: dox induces NRG1 knockdown, chemotherapy paclitaxel + cisplatin
Description: Tumor cells (10-20 million) were transplanted into right flank of athymic nude mice. When tumor size reached ˜200 mm^3, the mice were divided into different treatment groups. Mice were then treated with either vehicle or chemotherapy (paclitaxel, i.v.+cisplatin, i.p.) for the initial studies. The chemotherapy dosing regimen was paclitaxel 20 mg/kg i.v. every other day for 5 doses and cisplatin 5 mg/kg i.p. on days 1 and 7 for the Calu3 model and days 1 and 14 for the H441 model. Regressed tumors and time matched vehicle controls were collected at least 1 week after the last dose of chemo. Tumors were dissociated using dispase/collagenase and samples were FACS sorted to collect the GFP positive tumor cells. For the NRG1 knockdown studies, the treatment groups were: sucrose, doxycycline (dox), chemotherapy+sucrose, and chemotherapy+doxycycline. […]
To determine the efficacy of NRG1-targeting in the Calu3 model, Calu3-shNRG1 tumor bearing mice were assigned to four groups; 1) vehicle+sucrose, 2) vehicle+dox, 3) chemotherapy+sucrose, and 4) chemotherapy+dox. […] Tumor volume was measured twice a week for the duration of the study.
The effect of NRG1 on tumor relapse was assessed by comparing the growth of tumors in the chemotherapy+sucrose with those in the chemotherapy+dox group. […] Therefore, the measured volumes were considerably larger than the actual tumor volume in the dox-treated groups. […]

[3] = tested on: lung tumors of LSL-K-rasG12D;p53Fl/+ mice; experiment: Lung tumor burden by micro-CT in LSL-K-rasG12D;p53Fl/+ mice; format: in vivo, mouse; details: FIG. 3A-B
Description: (§1) LSL-K-ras^G12D;p53^F1/+ were infected with Adeno-Cre virus and allowed to age for 16 weeks post-tumor induction. Baseline CT scans were performed at 16 weeks post-tumor induction (day 0 of study) and mice were grouped such that average starting tumor volume per group were equal. Mice were dosed once a week for three weeks with cisplatin (7 mg/kg) or phosphate-buffered saline, and bi-weekly with HER4ECD-Fc (25 mg/kg) or anti-ragweed IgG2A (25 mg/kg) for the duration of the study. Serial CT scans were performed at days 14, 45, and 66.
Two micro-CT systems (vivaCT 40 and vivaCT 75, Scanco Medical, Switzerland) were utilized for longitudinal lung imaging. Animals were randomized between micro-CT systems and rescanned on the same system used for baseline imaging. […] The imaging data were evaluated in the coronal plane using the image analysis software package Analyze (AnalyzeDirect, Inc., Lenexa, Kans., USA). Once the largest cross-sectional plane of each tumor was identified, estimates of maximal tumor diameter (d1) and the largest perpendicular diameter (d2) were determined. The total tumor burden was calculated as the sum of the cross-product of the directional estimates (d1×d2) of all the tumors. […]

[4] = tested on: lung tumors of LSL-K-rasG12D;p53Fl/Fl mice; experiment: Lung tumor burden by micro-CT in LSL-K-rasG12D;p53Fl/Fl mice; format: in vivo, mouse; details: FIG. 3C
Description: as §1
Two micro-CT systems (vivaCT 40 and vivaCT 75, Scanco Medical, Switzerland) were utilized for longitudinal lung imaging. Animals were randomized between micro-CT systems and rescanned on the same system used for baseline imaging. […] The imaging data were evaluated in the coronal plane using the image analysis software package Analyze (AnalyzeDirect, Inc., Lenexa, Kans., USA). Once the largest cross-sectional plane of each tumor was identified, estimates of maximal tumor diameter (d1) and the largest perpendicular diameter (d2) were determined. The total tumor burden was calculated as the sum of the cross-product of the directional estimates (d1×d2) of all the tumors.
A second study was carried out in LSL-K-ras^G12D;p53^F1/F1 mice as described above. […] Combination activity was assessed using an unpaired t-test against its monotherapy * p<0.05, ** p<0.01.

NRG1/HER3 signaling = experiment: HER4-ECD on serum starved LKPH1 and LKPH2 cells, p-HER3 Western blot; format: cell-based, mouse
Description: To induce shRNA expression, stable cell lines harboring doxcycline-inducible shNRG1 or shLuciferase were grown in 1 ug/ml doxcycline for a total of 6 days. The first day of induction cells were grown in 10% FBS, followed by a titration of FBS over the course of 4 more days. The cells were then completely serum starved during the last 6 hours of growth. Cells were then processed for RNA extraction or western blotting. For HER4ECD studies in mouse lung tumor cell lines, LKPH cells were grown in serum starved conditions for 24 hours prior to addition of HER4ECD at a concentration of 2 mg/ml. LKPH cells were then incubated for another 48 hours prior to processing for Western blotting. Addition of exogenous NRG1 on H441 cells were performed as follows: H441 cells were serum starved for 18 hours prior to addition of 1 uM recombinant human NRG1 beta-1 extracellular domain (R&D systems) or 1 uM anti-ragweed IgG2A as the control. Ten minutes after addition of NRG1 or ragweed, cells were processed for Western blotting.
To test the role of NRG1 signaling in promoting relapse after chemotherapy in the LSL-K-ras^G12D;p53^F1/+ mouse model, a ligand-trap approach to sequester NRG1 and prevent its binding to receptors in vivo was employed. A fusion of the human HER4 extracellular domain (HER4-ECD) fused to murine IgG2A Fc was generated. […]

HRG1β = experiment: Competition assay with 538.24.17 for HRG1β; format: binding; details: FIG. 12
Description: (§2) A competition assay was performed to determine the binding specificity of the 526.09 and 526.02 antibodies.

NRG1β = target: T1, NRG1β (Homo sapiens, UniProt Q02297); experiment: Inhibition of 125I-HRG (NRG1β) binding to HER3-ECD-Fc; details: parental anti-NRG1 antibodies, FIG. 6
T1 sequence (Q02297 177-244 isoform Q02297-6 limits assumed): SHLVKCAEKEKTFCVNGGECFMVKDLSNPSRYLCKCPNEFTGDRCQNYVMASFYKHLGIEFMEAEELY
Description: The antibodies were tested for their ability to inhibit NRG1β binding to HER3-Fc. 125I-HRG was generated at Genentech as described previously (Sliwkowski et al JBC 1994). Binding assays were performed in Nunc break-apart strip wells (Thermo-Fisher Scientific, Rochester, N.Y.). Plates were coated at 4° C. overnight with 250 ng/well of HER3-ECD-Fc fusion protein in carbonate buffer (pH 9.6). Plates were rinsed twice with wash buffer (PBS/0.05% Tween 20) and blocked with 100 μL PBS including 1% bovine serum albumin (BSA) for 30 minutes. Increasing concentrations of anti-NRG1 antibodies in RPMI 1640 medium (Invitrogen; Carlsbad, Calif.) with 0.2% BSA were pre-bound to HER3-ECD-Fc. 125I-HRG (specific activity: 266 mCi/mg, 75,000 cpm/well) was added immediately after in a total assay volume of 130 μL. Plates were incubated for 2 hours at room temperature, rinsed twice, and individual wells were counted using a 100 Series Iso Data γ-counter. Samples were assayed in triplicates. Plotting was performed using KaleidaGraph 3.6 software. […]
The affinity matured variants were tested for their ability to block HRGβ binding to HER3-Fc. […] Plates were incubated for 2 hours at room temperature, rinsed twice, and individual wells were counted using a 100 Series Iso Data γ-counter. […]

HRG1a = target: T2, HRG1a (Homo sapiens, UniProt Q02297); experiment: Competition assay with 538.24.17 for HRG1a; format: binding; details: FIG. 12
T2 sequence (Q02297 177-241): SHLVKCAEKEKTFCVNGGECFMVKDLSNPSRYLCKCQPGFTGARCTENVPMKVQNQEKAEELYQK
Description: as §2

**Q.** How did the “tumor volume doubling time (TDT)” value [1] turn out when `C[C@H]1c2cccc(O)c2C(=O)C2=C(O)[C@]3(O)C(=O)C(C(N)=O)=C(O)[C@@H](N(C)C)[C@@H]3[C@@H](O)[C@@H]21` [dox, doxycycline] was run?
**A.** 19 days

**Q.** `C[C@H]1c2cccc(O)c2C(O)=C2C(=O)[C@]3(O)C(O)=C(C(N)=O)C(=O)[C@@H](N(C)C)[C@@H]3[C@@H](O)[C@@H]21` [vehicle+dox] was tested. Which “tumor volume doubling time (TDT)” value [2] did it give?
**A.** 44.5 days

**Q.** How did the “tumor growth (average tumor burden and tumor growth rate)” value [3] turn out when `N.N.[Cl][Pt][Cl]` [cisplatin] was run?
**A.** not significantly different

**Q.** Which results are given for “HER4-ECD: fusion of the human HER4 extracellular domain to murine IgG2A Fc, ligand trap to sequester NRG1”?
**A.** tumor burden by micro-CT on day 28 [4]: no effect; p-HER3 levels (NRG1/HER3 signaling): diminished

B1: 526.90: parental anti-NRG1 antibody; VH SEQ ID NO: 52, VL SEQ ID NO: 53 (antibody, V domains shown)
VH: EVQLVESGGGLVQPGGSLRLSCAASGFTFSGNAMSWVRQAPGKGLEWVSWIYPSGGNTYYADSVKGRFTISADTSKNTAYLQMNSLRAEDTAVYYCARSYILSYPSITWAFDYWGQGTLVTVSS
VL: DIQMTQSPSSLSASVGDRVTITCRASQSISSYLAWYQQKPGKAPKLLIYGASSRASGVPSRFSGSGSGTDFTLTISSLQPEDFATYYCQQSYSTPITFGQGTKVEIKR
modifications: Heavy chain variable region; Light chain variable region
**Q.** With B1 as the molecule, how does the “competition with 538.24.17 for HRG1β” value (HRG1β) read?
**A.** competes

**Q.** What about the “dose-dependent inhibition of NRGβ binding to HER3-Fc” value (NRG1β) of the same molecule?
**A.** most potent blockers

**Q.** What about the “competition with 538.24.17 for HRG1a” value (HRG1a) of the same molecule?
**A.** competes

From patent US20140363438A1, “NEUREGULIN ANTIBODIES AND USES THEREOF” (Genentech, Inc., priority 2011, published 2014)
